Patent publication US9388147B2 (Receptos, Inc., priority 2009, dated 2016)
Structures can show the parent of a compound that is named as a salt. Each block holds one compound with its values, some of them ahead of it.

Assays:
[1] = molecular target: T1, S1P3 (Homo sapiens, UniProt Q99500); assay: Specificity over other S1P receptors: S1P3-Gα15 NFAT-bla HEK293T reporter assay; type: cell-based; details: without Forskolin, read-out: S1P3 agonist value (EC50)
T1 construct: host or cells: NFAT-bla HEK293T
Description: (§1) Cells were seeded into 384-well black wall/clear bottom plates at 10^4 cells/well/19.5 μl assay media (DMEM-phenol free, 0.5% charcoal/dextran stripped serum, 2 mM glutamine, 0.1 mM NEAA, 1 mM Na-Pyruvate, 25 mM Hepes) and incubated for 18 hrs at 37° C. in 5% CO2. Dose response curves (10-point) were generated in 10 mM Hepes, 0.1% Pluronic F127, in the presence of Forskolin. Cells were treated with 0.5 μl compound in the presence of 2 μM Forskolin for 4 hrs at 37° C. The FRET-based β-lactamase fluorescent substrate (LiveBLAzer™-FRET B/G Loading Kit CC4-AM; Invitrogen) was prepared according to manufacturer's directions, and incubated with cells for 2 hrs at room temperature. Plates were read at Ex:410/Em:458 and Ex:410/Em:522, and the response ratio determined. Data was analyzed by non-linear regression to determine the EC50 for inhibition of Forskolin induced cAMP.
(§2) To assess compound specificity on other S1P receptors the following cell lines were used: S1P2 CRE-bla CHOK1, S1P3-Gα15 NFAT-bla HEK293T (Invitrogen), S1P4-bla TANGO U2OS (Invitrogen), S1P5-bla TANGO U2OS (Invitrogen). The same assay set up for S1P1 was used but without Forskolin. S1P4 and S1P5 assays were performed in FreeStyle Expression medium (Invitrogen). S1P5 cells were incubated for 48 hrs in prior to treatment with compound.

[2] = Evaluation of therapeutic index in rats: 5 or 14 day toxicology study, lung to body weight ratio; type: in vivo, Sprague-Dawley rat; details: for Dose Resulting in 10% increase in lung weight: rats, oral, 5 or 14 consecutive days, interpolated from dose versus lung to body weight; for TI 14 days: therapeutic index: dose producing 10% lung weight increase / dose producing 50% T-cell depletion, 14 day toxicology study in rats
Description: All studies were conducted in non-fasted male and female Sprague-Dawely rats (Simonsen Laboratories). Rats were housed in an AAALAC accredited facility and the research was approved by the facilities Institutional Animal Care and Use Committee (IACUC). The animals were acclimated to the laboratory for at least 5 days prior to initiation of experiments.
(§3) The compounds listed in Table 6 were formulated as suspensions in a vehicle consisting of 0.5% carboxymethyl cellulose (Acros Organics) in purified water (pH adjusted to ˜2.2 with hydrochloric acid). The same formulation was used in the rat lymphopenia and toxicology studies described below. The concentration of each compound in suspension was verified to be within ±10% of the target concentration by HPLC-UV.
In the toxicology studies, three male and three female rats per group were assigned to dosing groups using body weight based randomization. A control group in each study received vehicle. All animals were dosed orally by gavage on 5 or 14-consecutive days at a dose volume of 5 mL/kg/day. The animals were observed daily for any manifestations of adverse effect. Twenty-four hours after the final study dose, the rats were anesthetized with isoflurane and a terminal blood sample was taken by intra-cardiac puncture for hematology and clinical chemistry evaluation (IDEXX Laboratories, Sacramento, Calif.). The lungs with trachea were collected, weighed, and then prepared for histology by perfusion with 10% neutral buffered formalin via the trachea. The internally fixed lungs were then preserved in 10% neutral buffered formalin and submitted for histological examination (IDEXX).
The dose of each compound resulting in a 10% increase in the lung to terminal body weight ratio was estimated for each compound by linear interpolation. The therapeutic index was estimated as the ratio of the dose producing 10% lung weight increase to the dose producing 50% T-Cell depletion.
(§4) The dose producing a 10% increase in lung to body weight ratio was interpolated from a plot of dose versus lung to body weight. The lymphopenia response was measured 24 hours following the final dose of a 3-5 day multiple dose regimen.

[3] = molecular target: T2, S1P4 (Homo sapiens, UniProt O95977); assay: Specificity over other S1P receptors: S1P4-bla TANGO U2OS assay; type: cell-based; details: read-out: S1P4 agonist value (EC50)
T2 construct: Tango fusion (own knowledge: protease cleavage site plus GAL4-VP16 transcription factor at the receptor's C-terminus); host or cells: U2OS (Tango -bla)
T2 sequence (O95977 1-384): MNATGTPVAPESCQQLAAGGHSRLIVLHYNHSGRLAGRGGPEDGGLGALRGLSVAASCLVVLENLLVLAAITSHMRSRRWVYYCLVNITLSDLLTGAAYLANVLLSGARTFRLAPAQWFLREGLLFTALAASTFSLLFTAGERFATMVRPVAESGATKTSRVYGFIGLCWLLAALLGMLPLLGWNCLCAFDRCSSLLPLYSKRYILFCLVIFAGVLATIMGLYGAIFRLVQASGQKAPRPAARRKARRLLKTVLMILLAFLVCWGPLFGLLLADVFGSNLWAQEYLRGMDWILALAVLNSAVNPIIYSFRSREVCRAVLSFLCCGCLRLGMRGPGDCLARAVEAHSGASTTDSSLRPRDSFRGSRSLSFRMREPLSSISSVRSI
Description: as §1, §2

[4] = tested on: peripheral T-cell counts; assay: Lymphopenia in rats, 3-5 day multiple dose regimen; type: in vivo, rat; details: female rats, oral, 24 h after final dose of a 3-5 day multiple dose regimen
Description: In rats: Female rats (Simonsen Laboratories, Gilroy Calif.) were housed in an ALAAC accredited facility and the research was approved by the facilities Institutional Animal Care and Use Committee (IACUC). The animals were acclimated to the laboratory for at least 5 days prior to initiation of experiments. Rats (n=3/compound/time-point) were dosed by oral gavage with 1 mg/kg compound formulated in a vehicle consisting of 5% DMS0/5% Tween 20 and 90% 0.1N HCL. Control rats were dosed PO with the vehicle. Whole blood was collected from isoflurane anesthetized rats via the retro-orbital sinus and terminal samples were collected by cardiac puncture into EDTA. Whole blood was incubated with mouse anti-rat CD32 (BD #550271), PE-mouse anti-rat CD45R/B220 (BD #554881), PECy5-mouse anti-rat CD4 (BD #554839), and APC-mouse anti-rat CD8a (eBioscience #17-0084) for 30 minutes on ice. Red blood cells were lysed using BD Pharm Lyse Lysing buffer (#555899) and white blood cells were analyzed with a BD FACSArray. Lymphopenia was expressed as the % of white blood cells that were CD4 or CD8 positive T cells. The overall lymphopenia response over 24 h was estimated by calculating the area under the effect curve (AUEC) using the linear trapezoidal rule.
as §3
Prior to the conduct of toxicology studies, the effect of three to five daily doses of each compound on peripheral T-cell counts of female rats was determined (see lymphopenia measurements in rats above). In these lymphopenia studies, blood samples were collected onto EDTA at intervals after the final study dose. The collection times were not identical for each study, however, all studies included a sample collected 24 hours after the final dose. The lymphopenia data was used as a biomarker to select equally pharmacologically active doses for the subsequent toxicology study. […] The high dose in the toxicology study represented a ≧20-fold increment over the low dose.
as §4

[5] = molecular target: T3, S1P5 (Homo sapiens, UniProt Q9H228); assay: Specificity over other S1P receptors: S1P5-bla TANGO U2OS assay; type: cell-based; details: read-out: S1P5 agonist value (EC50)
T3 construct: Tango fusion (own knowledge: protease cleavage site plus GAL4-VP16 transcription factor at the receptor's C-terminus); host or cells: U2OS (Tango -bla)
Description: as §1, §2

[6] = molecular target: T4, S1P2 (Homo sapiens, UniProt O95136); assay: Specificity over other S1P receptors: S1P2 CRE-bla CHOK1 reporter assay; type: cell-based; details: S1P2 CRE-bla CHOK1, without Forskolin; read-out: S1P2 agonist value (EC50)
T4 construct: expressed in transfected cells; host or cells: CRE-bla CHOK1
Description: as §1, §2

T4 sequence (O95136 whole entry, species assumed): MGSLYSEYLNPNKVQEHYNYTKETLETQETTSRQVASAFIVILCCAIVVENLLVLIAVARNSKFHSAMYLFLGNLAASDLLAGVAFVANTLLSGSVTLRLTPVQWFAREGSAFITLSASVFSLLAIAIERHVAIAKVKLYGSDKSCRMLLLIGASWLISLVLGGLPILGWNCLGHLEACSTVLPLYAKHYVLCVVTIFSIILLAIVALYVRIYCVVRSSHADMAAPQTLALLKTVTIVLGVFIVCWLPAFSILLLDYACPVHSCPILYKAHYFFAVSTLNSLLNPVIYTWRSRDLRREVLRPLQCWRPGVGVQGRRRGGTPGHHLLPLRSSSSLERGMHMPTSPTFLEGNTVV
T3 sequence (Q9H228 whole entry, the tested form may be a part): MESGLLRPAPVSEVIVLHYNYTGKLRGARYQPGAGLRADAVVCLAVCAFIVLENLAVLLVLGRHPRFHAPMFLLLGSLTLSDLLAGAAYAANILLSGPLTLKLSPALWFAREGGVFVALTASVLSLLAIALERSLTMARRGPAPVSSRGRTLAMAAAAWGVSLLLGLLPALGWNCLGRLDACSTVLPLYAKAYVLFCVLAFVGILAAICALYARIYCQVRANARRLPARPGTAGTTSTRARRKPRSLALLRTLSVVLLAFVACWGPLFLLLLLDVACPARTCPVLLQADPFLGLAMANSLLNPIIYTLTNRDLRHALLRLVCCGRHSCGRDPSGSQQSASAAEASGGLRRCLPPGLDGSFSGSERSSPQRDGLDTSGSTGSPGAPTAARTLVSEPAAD
T1 sequence (Q99500 whole entry): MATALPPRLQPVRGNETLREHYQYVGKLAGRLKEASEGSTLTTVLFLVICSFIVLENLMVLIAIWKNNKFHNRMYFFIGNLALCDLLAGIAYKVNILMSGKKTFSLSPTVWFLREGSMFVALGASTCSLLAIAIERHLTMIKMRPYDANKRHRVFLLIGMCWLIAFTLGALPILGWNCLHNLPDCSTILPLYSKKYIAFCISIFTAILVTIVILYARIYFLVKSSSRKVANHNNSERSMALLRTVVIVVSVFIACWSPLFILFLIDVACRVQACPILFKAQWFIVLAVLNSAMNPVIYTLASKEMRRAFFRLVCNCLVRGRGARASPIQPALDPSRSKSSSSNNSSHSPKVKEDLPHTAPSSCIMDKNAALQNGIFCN

SMILES: CC(C)Oc1ccc(-c2nc(-c3cccc4c3CC[C@H]4N)no2)cc1C#N [Compound 49, (R)-5-(3-(1-amino-2,3-dihydro-1H-inden-4-yl)-1,2,4-oxadiazol-5-yl)-2-isopropoxy-benzonitrile hydrochloride]
EC50 [1]: 8.95 µM | Dose Resulting in 10% increase in lung weight [2]: 0.2 mg/kg | TI 14 days [2]: 2 | EC50 [3]: 9.03 µM | Dose Producing 50% lymphopenia [4]: 0.10 mg/kg | EC50 [5]: 0.0201 µM | EC50 [6]: 1.08 µM

SMILES: CC(C)Oc1ccc(-c2nc(-c3cccc4c3CC[C@@H]4N)no2)cc1C#N [Compound 50, (S)-5-(3-(1-amino-2,3-dihydro-1H-inden-4-yl)-1,2,4-oxadiazol-5-yl)-2-isopropoxy-benzonitrile]
EC50 [1]: 8.91 µM | Dose Resulting in 10% increase in lung weight [2]: 2.0 mg/kg | TI 14 days [2]: 20 | EC50 [3]: 7.87 µM | Dose Producing 50% lymphopenia [4]: 0.10 mg/kg | EC50 [5]: 0.0445 µM | EC50 [6]: 7.72 µM

EC50 [1]: 4.5 µM | EC50 [3]: 1.61 µM | EC50 [5]: 0.0151 µM | EC50 [6]: 5.69 µM
SMILES: CC(C)Oc1ccc(-c2nc(-c3cccc4c3CC[C@H]4NCCO)no2)cc1C#N [Compound 85, (R)-5-(3-(1-(2-hydroxyethylamino)-2,3-dihydro-1H-inden-4-yl)-1,2,4-oxadiazol-5-yl)-2-isopropoxybenzonitrile]
Dose Resulting in 10% increase in lung weight [2]: 2.8 mg/kg | TI 14 days [2]: 14 | Dose Producing 50% lymphopenia [4]: 0.15 mg/kg

SMILES: CC(C)Oc1ccc(-c2nc(-c3cccc4c3CC[C@H]4NCC(=O)N(C)C)no2)cc1C#N [Compound 90, (R)-2-(4-(5-(3-cyano-4-isopropoxyphenyl)-1,2,4-oxadiazol-3-yl)-2,3-dihydro-1H-inden-1-ylamino)-N,N-dimethylacetamide hydrochloride]
EC50 [1]: 8.82 µM | Dose Resulting in 10% increase in lung weight [2]: 5.5 mg/kg | TI 14 days [2]: 14 | EC50 [3]: > 10 µM | Dose Producing 50% lymphopenia [4]: 0.40 mg/kg | EC50 [5]: 0.0129 µM | EC50 [6]: 6.66 µM

SMILES: CC(C)Oc1ccc(-c2nc(-c3cccc4c3CC[C@@H]4NCC(=O)N(C)C)no2)cc1C#N [Compound 91, (S)-2-(4-(5-(3-cyano-4-isopropoxyphenyl)-1,2,4-oxadiazol-3-yl)-2,3-dihydro-1H-inden-1-ylamino)-N,N-dimethylacetamide]
EC50 [1]: > 10 µM | Dose Resulting in 10% increase in lung weight [2]: 0.3 mg/kg | TI 14 days [2]: 1 | EC50 [3]: > 10 µM | Dose Producing 50% lymphopenia [4]: 0.30 mg/kg | EC50 [5]: 0.0152 µM | EC50 [6]: > 10 µM
